Patent publication US20140329844A1, “METHOD OF RESTORING THE INCRETIN EFFECT” (NEURENDO PHARMA, LLC, priority 2006, published 2014)
“And” between values parts separate entries of the source, which are not always exact repeats. Equal entries are not always repeated.

What was measured:
[1] = Daily blood glucose profile of a subject with early stage Type 2 diabetes during GNTI administration; format: in vivo; conditions: human; for Average blood glucose by day of week / Readings In Target, 65-155 (as %) / Readings Lows, 51-64 (as %): GNTI once weekly
Experimental: The daily blood glucose profile of a subject with early stage, [non-insulin dependent] Type 2 diabetes was monitored during extended periods of administration of guanidinylated naltrindole (GNTI).
A weekly dose of about 70 ng/kg was administered.
FIGS. 1-3 illustrate the blood glucose readings over an extended period of time, a modal week and a modal day. The target blood glucose range was 65-155 mg/dL. Table 3 illustrates that 98% of the readings were within the target range. The other 2% of the readings fell below the target range and fell between 51-64 mg/dL.
FIGS. 1-3 illustrate the subject's blood glucose readings over an extended period of time, a modal week, and a modal day. Accordingly, 227 blood glucose readings were taken, averaging 92 mg/dL over a 15 day period. 98% of all readings were between 65 and 127 mg/dL, and 2% between […], representing a very narrow overall spread.

[2] = Weight (BMI) of the subject with early stage Type 2 diabetes during GNTI administration; format: in vivo; conditions: human, extended periods of GNTI administration
Source text: The weight of the subject with early stage Type 2 diabetes mellitus was also monitored during extended periods of administration on GNTI, decreasing from, a baseline body mass index (BMI) of 25 to an average BMI of 22.8, corresponding to a reduction by about 9%.

[3] = Blood glucose, HDL-C and triglycerides in rhesus monkeys after an oral dose of GNTI; format: in vivo, rhesus monkey
Experimental: A cohort of rhesus monkeys having progressively increasing degrees of impaired glucose tolerance were monitored following an oral dose of GNTI of 86 ng/kg of body weight. Baseline readings of blood glucose (BC), high density lipoprotein C (HDL-C) and triglycerides (TO) were taken on Day 0.
The effect of GNTI was most readily seen in the change of blood glucose and blood lipid levels. […] The other 4 subjects of the cohort, i.e., r98060, r96027, r00072, r01078, had baseline blood glucose levels ranging from 71-81 and were considered to have impaired glucose tolerance.

[4] = Meal tolerance test (MTT) in metabolically impaired rhesus monkeys treated with GNTI; format: in vivo, rhesus monkey; conditions: for BG / GIP / GLP-1 / Glucagon / Insulin / Glucagon Change T0-T60/120: individual animals
Experimental: To test for the effect of physiological first phase insulin secretion, a meal tolerance test (MTT) was developed. The meal tolerance test involved oral administration of meal based nutrients within suitable ratios of carbohydrates, proteins and fats. The ratios used for the given example were 70% carbohydrates, 8% protein and 22% fats. […] Following MTV administration, the same readings were taken at time points of 3-9 minutes to test for first-phase insulin secretion and the subsequent reduction in blood glucose. It was determined that a first-phase insulin secretion dependent slight increase in insulin concentration appeared, typically, at 5 minutes post MTT administration, followed by a corresponding blood glucose decrease at 7 minutes. A slight decrease in glucagon levels was also coupled with first-phase insulin secretion at 5 minutes. The MTT serves as a corollary to the intravenous glucose tolerance test (MITT) and better measures first-phase insulin secretion because oral administration of nutrients has a more direct effect on the incretin effect.
Table 7 illustrates administration of the MTT to two rhesus monkeys categorized as metabolically “normal’ based on “normal” fasting blood glucose values. The monkeys were given a diet of 55-60% carbohydrates, 15-25% protein, and 15-30% fat. Readings of blood glucose, insulin, and glucagon were taken at time points 0, 5, 7, 60 and 120 minutes. Additionally, at the same time points, the incretin hormones, GIP and GLP-1 were measured to more directly measure the incretin effect. […] Comparison of blood glucose levels at time points 0 and 120 minutes illustrates that normal metabolic functioning has returned the subject's blood glucose levels to normal within 120 minutes of MTT administration.
Table 8 illustrates the effect of GNTI on physiologic control of glucagon Baseline readings were taken on Day 1 of blood glucose, insulin, glucagon, GIP, and GLP-1 in metabolically impaired rhesus monkeys as determined through administration of the MTT. Cumulative in-situ doses of 45 ng/kg and 95 ng/kg were active on day 5 and day 7, respectively, during administration of the MTT. Readings of blood glucose, insulin, glucagon, GIP, and GLP-1 were taken at time points 0, 60 minutes and 120 minutes.

[5] = GNTI about 70 ng/kg weekly, Early AM 00:00-04:59
[6] = GNTI about 70 ng/kg weekly, Evening 15:00-18:59
[7] = GNTI about 70 ng/kg weekly, Midday 11:00-14:59
[8] = GNTI about 70 ng/kg weekly, Morning 05:00-10:59
[9] = GNTI about 70 ng/kg weekly, Night 19:00-23:59
[10] = GNTI about 70 ng/kg weekly, all readings, 15 day period
[11] = GNTI about 70 ng/kg weekly, of 227 readings
[12] = GNTI about 70 ng/kg weekly, overall
[13] = early stage Type 2 diabetes, GNTI about 70 ng/kg weekly, 15 days
[14] = four dyslipidemic rhesus monkeys, day 8, oral GNTI 86 ng/kg
[15] = rhesus monkeys, individual animals, Day 8 after oral GNTI 86 ng/kg on Day 0
[16] = Day 5, GNTI 45 ng/kg cumulative, MTT TP 0 min
[17] = Day 5, GNTI 45 ng/kg cumulative, MTT TP 60 min
[18] = Day 5, GNTI 45 ng/kg cumulative, MTT TP 120 min
[19] = Day 7, GNTI 95 ng/kg cumulative, MTT TP 0 min
[20] = Day 7, GNTI 95 ng/kg cumulative, MTT TP 60 min
[21] = Day 7, GNTI 95 ng/kg cumulative, MTT TP 120 min

SMILES: NC(N)=Nc1ccc2[nH]c3c(c2c1)C[C@@]1(O)[C@H]2Cc4ccc(O)c5c4[C@@]1(CCN2CC1CC1)[C@H]3O5 [GNTI, guanidinylated naltrindole]
- Average blood glucose [1, 5]: 79 mg/dL
- Readings In Target, 65-155 mg/dL [1, 5]: 100%
- Average blood glucose [1, 6]: 91 mg/dL
- Readings In Target, 65-155 mg/dL [1, 6]: 100%
- Average blood glucose [1, 7]: 92 mg/dL
- Readings In Target, 65-155 mg/dL [1, 7]: 98%
- Readings Lows, 51-64 mg/dL [1, 7]: 2%
- Average blood glucose [1, 8]: 90 mg/dL
- Readings In Target, 65-155 mg/dL [1, 8]: 97%
- Readings Lows, 51-64 mg/dL [1, 8]: 3%
- Average blood glucose [1, 9]: 95 mg/dL
- Readings In Target, 65-155 mg/dL [1, 9]: 97%
- Readings Lows, 51-64 mg/dL [1, 9]: 3%
- Readings between 61 and 65 mg/dL [1, 10]: 2%
- Readings between 65 and 127 mg/dL [1, 10]: 98%
- Number of readings High (156-300 mg/dL) [1, 11]: 0
- Number of readings Low (51-64 mg/dL) [1, 11]: 5
- Number of readings Target (65-155 mg/dL) [1, 11]: 222
- Number of readings Very High (301-601 mg/dL) [1, 11]: 0
- Number of readings Very Low (0-50 mg/dL) [1, 11]: 0
- Percent of readings High (156-300 mg/dL) [1, 12]: 0%
- Percent of readings Very High (301-601 mg/dL) [1, 12]: 0%
- Percent of readings Very Low (0-50 mg/dL) [1, 12]: 0%
- Readings In Target, 65-155 mg/dL [1, 12]: 98%
- Readings Lows, 51-64 mg/dL [1, 12]: 2%
- Readings in the hypoglycemic range ([1]; GNTI about 70 ng/kg weekly, readings below target range): none of these readings were in the hypoglycemic range
- Average blood glucose by day of week ([1]; Fri): 96 mg/dL
- Readings In Target, 65-155 (as %) ([1]; Fri): 100%
- Average blood glucose by day of week ([1]; Mon): 92 mg/dL
- Readings In Target, 65-155 (as %) ([1]; Mon): 100%
- Average blood glucose by day of week ([1]; Sat): 92 mg/dL
- Readings In Target, 65-155 (as %) ([1]; Sat): 100%
- Average blood glucose by day of week ([1]; Sun): 92 mg/dL
- Readings In Target, 65-155 (as %) ([1]; Sun): 100%
- Average blood glucose by day of week ([1]; Thur): 94 mg/dL
- Readings In Target, 65-155 (as %) ([1]; Thur): 100%
- Average blood glucose by day of week ([1]; Tue): 87 mg/dL
- Readings In Target, 65-155 (as %) ([1]; Tue): 87%
- Readings Lows, 51-64 (as %) ([1]; Tue): 13%
- Average blood glucose by day of week ([1]; Wed): 88 mg/dL
- Readings In Target, 65-155 (as %) ([1]; Wed): 93%
- Readings Lows, 51-64 (as %) ([1]; Wed): 7%
- Average blood glucose by day of week ([1]; Weekdays): 92 mg/dL
- Readings In Target, 65-155 (as %) ([1]; Weekdays): 97%
- Readings Lows, 51-64 (as %) ([1]; Weekdays): 3%
- Average blood glucose by day of week ([1]; Weekends): 92 mg/dL
- Readings In Target, 65-155 (as %) ([1]; Weekends): 100%
- Highest Blood Glucose [1, 13]: 127 mg/dL
- Lowest Blood Glucose [1, 13]: 61 mg/dL
- Average blood glucose ([1]; early stage Type 2 diabetes, GNTI about 70 ng/kg weekly, overall, 15 days, 227 readings): 92 mg/dL
- Maintenance of blood glucose levels within the target range ([1]; once weekly administration, target 65-155 mg/dL): aided in maintaining blood glucose levels within the target range
- Reduction of BMI from baseline [2]: about 9%
- Average body mass index (BMI) ([2]; baseline BMI 25): 22.8
- Decrease in blood glucose, average ([3]; 4 rhesus monkeys having impaired glucose tolerance, day 8, oral GNTI 86 ng/kg): 26%
- HDL-C increase, average [3, 14]: 23%
- HDL-C increase, range [3, 14]: 10-31%
- Decrease in blood glucose levels ([3]; glucose normal rhesus monkey r89163, day 8, oral GNTI 86 ng/kg): 3%
- Increase in HDL-C lipid levels ([3]; lipid normal rhesus monkey r98068, day 8, oral GNTI 86 ng/kg): 5%
- BG [3, 15]: 51 mg/dL and 53 mg/dL and 67 mg/dL and 56 mg/dL and 63 mg/dL
- HDL-C [3, 15]: 85 mg/dL and 46 mg/dL and 61 mg/dL and 63 mg/dL and 84 mg/dL
- TG [3, 15]: <45 mg/dL (3×) and 89 mg/dL and 60 mg/dL
- BG Change ([3]; rhesus monkeys, individual animals, Day 8 vs Baseline, oral GNTI 86 ng/kg): (−3%)
- Effect on glucagon after MTT ([4]; both dosages (45 and 95 ng/kg), time points 60 and 120, all subjects tested): marked decrease in glucagon
- BG [4, 16]: 83 mg/dL and 69 mg/dL and 51 mg/dL
- GIP [4, 16]: 50 pg/mL and 8 pg/mL
- GLP-1 [4, 16]: 34 pmol/L and 19 pmol/L and 11 pmol/L
- Glucagon [4, 16]: 411 pg/mL (2×) and 302 pg/mL
- Insulin [4, 16]: 57 microU/mL and 23 microU/mL and 14 microU/mL
- BG [4, 17]: 98 mg/dL and 70 mg/dL and 64 mg/dL
- GIP [4, 17]: 640 pg/mL and 320 pg/mL and 650 pg/mL
- GLP-1 [4, 17]: 83 pmol/L and 49 pmol/L and 31 pmol/L
- Glucagon [4, 17]: 366 pg/mL and 172 pg/mL and 267 pg/mL
- Insulin [4, 17]: 396 microU/mL and 145 microU/mL and 122 microU/mL
- BG [4, 18]: 61 mg/dL and 78 mg/dL and 76 mg/dL
- GIP [4, 18]: 760 pg/mL and 775 pg/mL
- GLP-1 [4, 18]: 31 pmol/L and 82 pmol/L and 79 pmol/L
- Glucagon [4, 18]: 261 pg/mL and 249 pg/mL and 122 pg/mL
- Insulin [4, 18]: 200 microU/mL and 249 microU/mL and 137 microU/mL
- Glucagon Change T0-T60/120 ([4]; Day 5, GNTI 45 ng/kg cumulative, T0 to T60 min): −11% and −43% and −35%
- Glucagon Change T0-T60/120 ([4]; Day 5, GNTI 45 ng/kg cumulative, T0 to T120 min): −36% and −39% and −60%
- BG [4, 19]: 56 mg/dL and 82 mg/dL and 73 mg/dL
- GIP [4, 19]: 30 pg/mL and 25 pg/mL and 20 pg/mL
- GLP-1 [4, 19]: 28 pmol/L and 60 pmol/L and 67 pmol/L
- Glucagon [4, 19]: 472 pg/mL and 487 pg/mL and 293 pg/mL
- Insulin [4, 19]: 14 microU/mL and 71 microU/mL and 30 microU/mL
- BG [4, 20]: 70 mg/dL and 106 mg/dL and 69 mg/dL
- GIP [4, 20]: 675 pg/mL (2×) and 75 pg/mL
- GLP-1 [4, 20]: 35 pmol/L and 60 pmol/L
- Glucagon [4, 20]: 240 pg/mL and 351 pg/mL and 107 pg/mL
- Insulin [4, 20]: 100 microU/mL and 401 microU/mL and 54 microU/mL
- BG [4, 21]: 63 mg/dL and 95 mg/dL and 86 mg/dL
- GIP [4, 21]: 675 pg/mL and 775 pg/mL and 240 pg/mL
- GLP-1 [4, 21]: 223 pmol/L and 77 pmol/L
- Glucagon [4, 21]: 271 pg/mL and 267 pg/mL and 108 pg/mL
- Insulin [4, 21]: 54 microU/mL and 307 microU/mL and 71 microU/mL
- Glucagon Change T0-T60/120 ([4]; Day 7, GNTI 95 ng/kg cumulative, T0 to T60 min): −49% and −28% and −63%
- Glucagon Change T0-T60/120 ([4]; Day 7, GNTI 95 ng/kg cumulative, T0 to T120 min): −43% and −45% and −63%
